From patent publication US20140206635A1, “METAL-SALEN COMPLEX COMPOUND, LOCAL ANESTHETIC AND ANTINEOPLASTIC DRUG” (IHI CORPORATION, priority 2011, published 2014)

Key:
[1] = Magnetic field-magnetization curve (MPMS7); format: physicochemical; details: magnetic field less than 10000 Oe (1 T); 37 degrees Celsius
From the text: However, when the magnetic field exceeds 10000 Oe (1 T), the Co salen complex compound or the Mn salen complex compound has large magnetization and is most suited for magnetic induction drug delivery systems which use superconducting magnets.

Clone M3 melanoma cells = experiment: Melanoma growth in mouse tail with local magnetic field; format: in vivo; details: for melanoma extension (area of melanoma pigmentation): 12 days after initial injection, saline group 100%; for histological examination, tumor expansion of melanoma: HE, anti-Ki-67, anti-Cyclyn D1 staining
Procedure: Melanoma was established in mouse tails in vivo by local grafting of cultured melanoma cells (Clone M3 melanoma cells). Incidentally, FIG. 11(1) is a photograph showing the effects of a saline group (saline) into which the saline water was injected instead of the Fe salen complex compound; FIG. 11(2) is a photograph showing the effects of a group (SC) into which the Fe salen complex compound was injected without applying the magnetic field; and FIG. 11(3) is a photograph showing the effect of a group (SC+Mag) into which the Fe salen complex compound was injected while applying the magnetic field (n=7-10).
The Fe salen complex compound (50 mg/kg) was administered intravenously via tail vein, followed by local application of a magnetic field by the use of a commercially available bar magnet (630 mT, a cylindrical neodymium magnet, 150 mm long and 20 mm in diameter). Application of a bar magnet was performed with 3 hour gentle contact with the site of melanoma immediately after injection of the Fe salen complex compound for 10-14 days.
Application of the bar magnet was performed in such a way so that the magnetic field strength became maximal over the area of expected melanoma extension, which was approximately […] or shorter in a mouse tail for a growth period of 2 weeks. Twelve days after the initial injection of the Fe salen complex compound, the extension of melanoma was evaluated by assessing the area of melanoma pigmentation.
A histological examination was performed as shown in FIG. 13 by means of Hematoxylin-Eosin staining and immuno-histochemical staining with an anti-Ki-67 antibody and an anti-Cyclyn D1 antibody which are both tumor proliferation markers in tissue sections.

rat L6 cell = experiment: Rat L6 cell culture with bar magnet, cell count proximal vs distal to the magnet; format: cell-based; details: after 48 hours, bar magnet at flask
Procedure: Culture medium was sprinkled with metal-salen complex compound powder, which is obtained with respect to each of the Fe salen complex compound, the Mn salen complex compound, the Cr salen complex compound, and the Co salen complex compound by the above-described method, in amounts allowing magnetic attraction to be visibly observed at a rat L6 cell confluence of 30%, and the state of the medium was photographed after 48 hours.
Then, after 48 hours, the bottom face of the rectangular flask was photographed from one end to the other, and the cell count was calculated. Incidentally, Referring to FIG. 8, a “position proximal to the magnet” means within a projection area of the magnet end surface at the bottom of the rectangular flask, and a “position distal to the magnet” means a region on the side opposite the magnet end surface at the bottom of the rectangular flask.
As a result, the magnetic drugs and the system equipped with magnetism-generating means according to the present invention can thus allow the drugs to become concentrated in target tissues and tissues of individuals.

[2] = Temperature rise of ointments under AC magnetic field; format: physicochemical; details: AC field 258 A, 400 kHz, 51.74 mT; for temperature rise of ointment: 300 seconds
Procedure: The aforementioned Fe salen complex compound was mixed with Vaseline, which is an adjuster for ointments, as a base at concentrations of 100 mmol and 200 mmol, respectively, to produce ointments. Then, the relationship between time and a temperature rise was measured by applying an AC magnetic field to these ointments under conditions of 258 A, 400 kHz, and 51.74 mT.
Then, the compound expressed by the aforementioned Formula (I) was mixed with Kenalog, which is an ointment for stomatitis, as a base at concentrations of 100 mmol and 200 mmol, respectively, to produce ointments. Then, the relationship between time and a temperature rise was measured by applying an AC magnetic field to these ointments under conditions of 258 A, 400 kHz, and 51.74 mT.
Next, as comparisons, the relationship between time and a temperature rise was measured by applying an AC magnetic field to each of 200 mg Vaseline and 200 mg Kenalog under conditions of 258 A, 400 kHz, and 51.74 mT.

[3] = Magnetic guidance of i.v. drug to right kidney, SNR by MRI; format: in vivo; details: mouse, intravenous; about 0.3 T at right kidney; after 10 minutes; vs left kidney and control
From the text: Next, an guidance example using a guidance system will be described. […] The metal plate 236, especially an iron plate, is placed between the pair of magnets 230 and 232 so that a magnetic field of locally uniform and strong strength can be created. An electrical magnet can be used instead of a magnet to modify the magnetic force generated in this guidance system. The magnetism-generating means can be moved to a target position of the individual on a table to allow the pair of magnetism-generating means to move in the X, Y, and Z directions. The tissue of an individual can be placed in the region of the magnetic field to concentrate the drug in the tissue.
More specifically, for example, the aforementioned Fe salen complex compound (drug concentration: 5 mg/mL (15 mM)) was injected intravenously into a mouse weighing about 30 g, a laparotomy was performed, and the mouse was placed on the iron plate 236 to locate its right kidney between the pair of magnets 230 and 232. […]
Together with the left kidney and a kidney to which no field was applied (control), a magnetic field was applied to the right kidney of the mouse; and after 10 minutes the SNR was measured by MRI in T1 mode and T2 mode.

[4] = Temperature rise under near infrared radiation; format: physicochemical; details: 100 mmol in agarose; near infrared 600 nm to 1600 nm, 10 W
Procedure: Next, a diatomic Fe salen complex compound (CAS#14167-12-5; produced by Tokyo Chemical Industry Co., Ltd.) was dissolved in agarose to produce a 100 mmol solution, which was put in a test tube, thereby preparing a sample. A sample of pure water put in a test tube was also prepared as a comparison. Then, these samples were respectively exposed to medical near infrared radiation (wavelengths: 600 nm to 1600 nm) by TOKYO IKEN CO., LTD. by using Super Lizer PX Type I (output: 10 W).

Structure (SMILES)	magnetization [1]	melanoma extension (area of melanoma pigmentation) (Clone M3 melanoma cells; SC group: 50 mg/kg i.v., no magnetic field) [%]	melanoma extension (area of melanoma pigmentation) (Clone M3 melanoma cells; SC+Mag group: 50 mg/kg i.v. plus bar magnet 630 mT, 3 hour) [%]	histological examination, tumor expansion of melanoma (Clone M3 melanoma cells; SC, no magnetic field)	histological examination, tumor expansion of melanoma (Clone M3 melanoma cells; with magnetic force field application)	number of cells at position proximal to the magnet vs position distal to the magnet (rat L6 cell)	temperature of ointment immediately after the measurement (0 second) ([2]; Kenalog base, 100 mmol) [degrees Celsius]	temperature rise of ointment ([2]; Kenalog base, 200 mmol)	temperature of ointment immediately after the measurement (0 second) ([2]; Kenalog base, 200 mmol) [degrees Celsius]	temperature of ointment immediately after the measurement (0 second) ([2]; Vaseline base, 100 mmol) [degrees Celsius]	temperature rise of ointment ([2]; Vaseline base, 200 mmol)	temperature of ointment immediately after the measurement (0 second) ([2]; Vaseline base, 200 mmol) [degrees Celsius]	drug retention in right kidney (SNR by MRI, T1 and T2 mode) [3]	temperature of sample 300 seconds later [4]	temperature of sample immediately after the measurement (0 second) [4] [degrees Celsius]
[Fe+2].[O-]c1ccccc1C=NCCN=Cc1ccccc1[O-] [Fe salen complex compound]	largest magnetization	63.68±16.3	9.05±3.42	tumor expansion of melanoma diminished	mostly disappeared	dramatically lower number of cells	35	approximately 5 degrees Celsius	35	35	approximately 5 degrees Celsius	35	possible to make the drug stay in the right kidney	–	–
Oc1ccccc1C=NCCN=Cc1ccccc1O.[Fe+2] [diatomic Fe salen complex compound]	–	–	–	–	–	–	–	–	–	–	–	–	–	approximately 53 degrees Celsius	26
